# Measured values taken from ChEMBL document CHEMBL3588800, “Novel Bioactive Hybrid Compound Dual Targeting Estrogen Receptor and Histone Deacetylase for the Treatment of Breast Cancer” (J Med Chem, 2015).
# How the values were obtained:
# [1] = target: T1, Estrogen receptor (Homo sapiens, UniProt P03372); test: Binding affinity to human ER-alpha ligand binding domain after 2 hrs by competitive fluorometric binding assay
# T1 sequence (P03372 whole entry): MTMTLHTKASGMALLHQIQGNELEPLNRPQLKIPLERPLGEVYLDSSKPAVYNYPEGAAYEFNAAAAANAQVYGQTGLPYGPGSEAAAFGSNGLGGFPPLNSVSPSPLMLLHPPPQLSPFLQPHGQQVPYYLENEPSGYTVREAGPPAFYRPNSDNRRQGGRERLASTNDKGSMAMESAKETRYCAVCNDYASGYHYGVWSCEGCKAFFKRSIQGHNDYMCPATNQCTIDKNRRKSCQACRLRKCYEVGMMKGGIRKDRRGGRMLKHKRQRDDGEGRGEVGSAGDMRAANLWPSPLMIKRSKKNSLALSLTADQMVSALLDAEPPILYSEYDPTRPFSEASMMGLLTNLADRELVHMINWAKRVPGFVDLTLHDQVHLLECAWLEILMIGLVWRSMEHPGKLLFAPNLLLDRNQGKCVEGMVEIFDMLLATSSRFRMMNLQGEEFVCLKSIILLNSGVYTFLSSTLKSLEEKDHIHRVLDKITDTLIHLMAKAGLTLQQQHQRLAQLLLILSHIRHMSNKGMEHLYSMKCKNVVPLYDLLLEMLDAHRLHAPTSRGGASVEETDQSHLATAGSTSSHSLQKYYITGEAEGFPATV
# [2] = target: T2, Estrogen receptor beta (Homo sapiens, UniProt Q92731); test: Binding affinity to human ER-beta ligand binding domain after 2 hrs by competitive fluorometric binding assay
# [3] = target: T3, Estrogen receptor (Homo sapiens) (UniProt P03372); test: Agonist activity at ER-alpha (unknown origin) transfected in HEK293T cells assessed as stimulation of transcriptional activity after 24 hrs by luciferase reporter gene assay relative to 17-beta estradiol; assay type: cell-based; conditions: HEK-293T
# T3 sequence (whole entry): T1 sequence (P03372 whole entry)
# [4] = target: T2, Estrogen receptor beta; test: Agonist activity at ER-beta (unknown origin) transfected in HEK293T cells assessed as stimulation of transcriptional activity after 24 hrs by luciferase reporter gene assay; assay type: cell-based, HEK-293T
# [5] = target: T2, Estrogen receptor beta; test: Agonist activity at ER-beta (unknown origin) transfected in HEK293T cells assessed as stimulation of transcriptional activity after 24 hrs by luciferase reporter gene assay relative to 17-beta estradiol; assay type: cell-based; conditions: HEK-293T
# [6] = target: T3, Estrogen receptor (Homo sapiens); test: Antagonist activity at ER-alpha (unknown origin) transfected in HEK293T cells assessed as inhibition of transcriptional activity after 24 hrs by luciferase reporter gene assay relative to 17-beta estradiol; assay type: cell-based; conditions: HEK-293T
# [7] = target: T2, Estrogen receptor beta; test: Antagonist activity at ER-beta (unknown origin) transfected in HEK293T cells assessed as inhibition of transcriptional activity after 24 hrs by luciferase reporter gene assay; assay type: cell-based, HEK-293T
# [8] = target: T2, Estrogen receptor beta; test: Antagonist activity at ER-beta (unknown origin) transfected in HEK293T cells assessed as inhibition of transcriptional activity after 24 hrs by luciferase reporter gene assay relative to 17-beta estradiol; assay type: cell-based; conditions: HEK-293T
# [9] = tested on: MCF7; test: cells; assay type: functional, cell-based; conditions: Homo sapiens, MCF7, 72 h
# [10] = tested on: DU-145; test: cells; assay type: functional, cell-based; conditions: Homo sapiens, DU-145, 72 h
# [11] = tested on: Vero; test: cells; assay type: ADME, cell-based; conditions: Chlorocebus sabaeus, 72 h
# [12] = target: Histone deacetylase 1 (Homo sapiens, UniProt Q13547); test: Inhibition of human recombinant HDAC1 after 15 mins by fluorogenic assay
# [13] = target: T1, Estrogen receptor; test: Agonist activity at ER-alpha (unknown origin) transfected in HEK293T cells assessed as stimulation of transcriptional activity after 24 hrs by luciferase reporter gene assay; assay type: cell-based, HEK-293T
# [14] = target: T4, Protein deacetylase HDAC6 (Homo sapiens, UniProt Q9UBN7); test: Inhibition of human recombinant HDAC6 after 15 mins by fluorogenic assay; conditions: read-out: IC50
# T4 sequence (Q9UBN7 whole entry): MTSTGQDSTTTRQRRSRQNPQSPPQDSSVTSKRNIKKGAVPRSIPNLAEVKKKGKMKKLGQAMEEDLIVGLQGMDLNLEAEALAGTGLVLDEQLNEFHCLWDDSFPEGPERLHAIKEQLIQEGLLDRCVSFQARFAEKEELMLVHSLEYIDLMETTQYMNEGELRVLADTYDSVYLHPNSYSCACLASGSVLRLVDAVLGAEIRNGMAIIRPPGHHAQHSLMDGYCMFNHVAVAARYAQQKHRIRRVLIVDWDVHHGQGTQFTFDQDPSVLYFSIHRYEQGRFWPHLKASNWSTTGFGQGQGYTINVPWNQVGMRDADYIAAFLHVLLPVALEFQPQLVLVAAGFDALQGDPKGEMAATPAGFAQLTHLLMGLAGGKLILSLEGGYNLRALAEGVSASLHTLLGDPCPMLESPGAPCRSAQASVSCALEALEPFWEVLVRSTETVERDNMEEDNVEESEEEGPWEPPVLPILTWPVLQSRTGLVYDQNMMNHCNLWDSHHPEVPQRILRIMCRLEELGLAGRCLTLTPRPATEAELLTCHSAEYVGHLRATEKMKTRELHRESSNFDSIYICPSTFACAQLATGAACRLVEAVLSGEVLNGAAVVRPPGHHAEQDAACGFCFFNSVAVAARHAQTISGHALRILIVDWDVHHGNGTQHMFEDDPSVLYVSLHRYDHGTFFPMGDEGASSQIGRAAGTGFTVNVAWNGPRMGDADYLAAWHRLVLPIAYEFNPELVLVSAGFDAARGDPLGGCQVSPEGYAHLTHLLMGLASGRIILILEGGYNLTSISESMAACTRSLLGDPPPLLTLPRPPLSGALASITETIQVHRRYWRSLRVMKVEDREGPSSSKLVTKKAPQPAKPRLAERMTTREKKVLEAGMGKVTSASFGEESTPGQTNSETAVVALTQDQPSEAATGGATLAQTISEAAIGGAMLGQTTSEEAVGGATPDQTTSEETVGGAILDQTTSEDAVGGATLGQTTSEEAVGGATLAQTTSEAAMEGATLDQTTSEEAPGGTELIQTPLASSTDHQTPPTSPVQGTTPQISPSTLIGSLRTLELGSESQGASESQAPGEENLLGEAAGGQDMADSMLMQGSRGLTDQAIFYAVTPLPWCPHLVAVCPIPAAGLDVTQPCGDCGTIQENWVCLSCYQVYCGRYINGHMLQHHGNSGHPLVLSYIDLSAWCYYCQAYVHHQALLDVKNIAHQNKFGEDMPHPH
# [15] = target: T1, Estrogen receptor; test: Antagonist activity at ER-alpha (unknown origin) transfected in HEK293T cells assessed as inhibition of transcriptional activity after 24 hrs by luciferase reporter gene assay; assay type: cell-based, HEK-293T
# T2 sequence (Q92731 whole entry, the tested form may be a part): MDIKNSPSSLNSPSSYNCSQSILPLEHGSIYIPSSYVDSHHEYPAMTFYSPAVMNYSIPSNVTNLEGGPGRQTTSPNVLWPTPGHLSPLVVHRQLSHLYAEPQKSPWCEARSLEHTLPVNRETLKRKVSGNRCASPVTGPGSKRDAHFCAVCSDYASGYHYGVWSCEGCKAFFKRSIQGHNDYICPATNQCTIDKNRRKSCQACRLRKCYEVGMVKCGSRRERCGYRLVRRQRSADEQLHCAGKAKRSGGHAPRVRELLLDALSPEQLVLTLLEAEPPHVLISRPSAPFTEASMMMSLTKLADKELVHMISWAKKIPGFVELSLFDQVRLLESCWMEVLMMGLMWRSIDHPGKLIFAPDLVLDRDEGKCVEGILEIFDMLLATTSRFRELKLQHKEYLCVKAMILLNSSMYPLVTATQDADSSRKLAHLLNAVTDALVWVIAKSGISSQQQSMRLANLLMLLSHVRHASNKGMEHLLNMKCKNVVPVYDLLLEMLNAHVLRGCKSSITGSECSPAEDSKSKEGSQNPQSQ
# Sequence of Histone deacetylase 1 (Q13547 whole entry): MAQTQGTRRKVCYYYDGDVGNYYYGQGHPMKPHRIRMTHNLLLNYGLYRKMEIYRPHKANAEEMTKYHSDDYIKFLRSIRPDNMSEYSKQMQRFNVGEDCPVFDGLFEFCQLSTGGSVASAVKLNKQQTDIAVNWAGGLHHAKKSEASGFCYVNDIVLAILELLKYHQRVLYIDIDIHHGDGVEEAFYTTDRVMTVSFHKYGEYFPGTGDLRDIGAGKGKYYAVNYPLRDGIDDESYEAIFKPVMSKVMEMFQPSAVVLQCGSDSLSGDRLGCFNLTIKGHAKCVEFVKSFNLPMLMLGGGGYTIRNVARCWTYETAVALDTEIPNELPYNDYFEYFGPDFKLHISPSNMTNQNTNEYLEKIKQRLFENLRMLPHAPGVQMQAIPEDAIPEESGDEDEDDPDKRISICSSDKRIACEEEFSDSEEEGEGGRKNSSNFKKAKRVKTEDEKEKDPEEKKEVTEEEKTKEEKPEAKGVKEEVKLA
SMILES,Ki [1],Ki [2],Efficacy [3],EC50 [4],Efficacy [5],Efficacy [6],IC50 [7],Efficacy [8],IC50 [9],IC50 [10],IC50 [11],IC50 [12],EC50 [13],IC50 [14],IC50 [15],IC50 ([12]; read-out: IC50)
Cc1cccc(OS(=O)(=O)C2CC3OC2C(c2ccc(NC(=O)CCCCCCC(=O)NO)cc2)=C3c2ccc(O)cc2)c1 (racemic),4.43 µM,> 5 µM,38%,0.054 µM,29%,115%,0.613 µM,48%,22.9 µM,32.2 µM,> 100 µM,–,–,–,–,–
O=C(CCCCCCC(=O)Nc1ccc(C2=C(c3ccc(O)cc3)C3CC(S(=O)(=O)Oc4ccc(Br)cc4)C2O3)cc1)NO (racemic),> 5 µM,–,33%,0.173 µM,21%,101%,–,91%,17.1 µM,11.3 µM,> 100 µM,Not Active,1.14 µM,0.23 µM,–,–
O=C(O)CCCCCCC(=O)Nc1ccc(C2=C(c3ccc(O)cc3)C3CC(S(=O)(=O)Oc4ccccc4)C2O3)cc1 (racemic),0.112 µM,0.654 µM,-13%,0.93 µM,36%,36%,–,97%,66.4 µM,> 100 µM,> 100 µM,–,–,–,1.21 µM,–
Cc1ccccc1OS(=O)(=O)C1CC2OC1C(c1ccc(NC(=O)CCCCCCC(=O)O)cc1)=C2c1ccc(O)cc1 (racemic),–,–,-3%,0.38 µM,24%,43%,–,117%,7.9 µM,> 100 µM,> 100 µM,–,–,5.01 µM,0.46 µM,0.022 µM
O=C(CCCCCCC(=O)Nc1ccc(OS(=O)(=O)C2CC3OC2C(c2ccc(O)cc2)=C3c2ccc(O)cc2)cc1)NO (configuration not stated),0.148 µM,0.127 µM,-15%,–,3%,104%,1.14 µM,-27%,55.2 µM,42.3 µM,> 100 µM,–,–,0.189 µM,–,0.583 µM
COC(=O)CCCCCCC(=O)Nc1cccc(OS(=O)(=O)C2CC3OC2C(c2ccc(O)cc2)=C3c2ccc(O)cc2)c1 (configuration not stated),–,–,16%,–,3%,111%,–,91%,19.1 µM,19.3 µM,> 100 µM,–,0.001 µM,–,–,–
Cc1cccc(C)c1OS(=O)(=O)C1CC2OC1C(c1ccc(NC(=O)CCCCCCC(=O)O)cc1)=C2c1ccc(O)cc1 (racemic),> 5 µM,0.971 µM,61%,–,-8%,127%,–,87%,> 100 µM,> 100 µM,> 100 µM,–,0.32 µM,–,–,–
COc1ccc(OS(=O)(=O)C2CC3OC2C(c2ccc(NC(=O)CCCCCCC(=O)O)cc2)=C3c2ccc(O)cc2)cc1 (racemic),–,–,27%,–,5%,40%,–,137%,15.3 µM,38.6 µM,> 100 µM,Not Active,–,4.17 µM,116 µM,–
O=C(O)CCCCCCC(=O)Nc1ccc(C2=C(c3ccc(O)cc3)C3CC(S(=O)(=O)Oc4cccc(O)c4)C2O3)cc1 (racemic),–,–,77%,8.1 µM,105%,108%,–,120%,3.6 µM,23.8 µM,> 100 µM,Not Active,3.69 µM,0.071 µM,–,–
O=C(O)CCCCCCC(=O)Nc1ccc(C2=C(c3ccc(O)cc3)C3CC(S(=O)(=O)Oc4ccc(C(F)(F)F)cc4)C2O3)cc1 (racemic),–,–,-51%,–,-12%,10%,–,136%,24 µM,77 µM,> 100 µM,Not Active,–,0.648 µM,0.79 µM,–
O=C(O)CCCCCCC(=O)Nc1ccc(C2=C(c3ccc(O)cc3)C3CC(S(=O)(=O)Oc4ccc5ccccc5c4)C2O3)cc1 (configuration not stated),–,–,-21%,0.53 µM,19%,45%,–,94%,18.9 µM,58.3 µM,> 100 µM,–,–,8.11 µM,0.92 µM,0.282 µM
